Publication PMC9867332 (Pharmaceutics, 2022)
Like-named read-outs stand apart in the source and are kept apart here.

Experiments:
[1] = MTT cytotoxicity assay on uninfected Vero cells; type: cell-based; settings: African green monkey, uninfected Vero cells (CCL-81), 3 days at 37 °C, read-out: CC50 (half-maximum cytotoxic concentration)
Method: Vero cells (CCL-81, American Type Culture Collection, Boston, MA, USA), used as a cellular model for antiviral bioassay, were cultured in Dulbecco’s modified Eagle’s medium (DMEM), supplemented with 10% fetal bovine serum (FBS) and gentamycin, and incubated at 37 °C with 5% CO2. They were used to adapt the avian Massachusetts serotype CoV-IBV strain.
Cell viability was evaluated using the MTT (3-(4,5-dimethylthiazol-2-yl)-2,5-diphe- nyltetrazolium bromide) method. The MTT assay is sensitive and reliable for cellular metabolic activity. It is based on the ability of nicotinamide adenine dinucleotide phosphate (NADPH)-dependent cellular oxidoreductase enzyme to reduce the tetrazolium dye to the purple formazan crystals. Sub-confluent Vero cells, seeded in 96-well microplates (2 × 10^6 cells/microplate; Thermo Fisher Scientific), were incubated with serial dilutions of synthesized molecules, in duplicates for 3 days at 37 °C. MTT solution (500 μg/mL) was then added, and the cells were incubated for further 4 h. The formed formazan crystals within metabolically viable cells were then dissolved in 100 µL of DMSO, and the absorption, proportional to viable cell number, was measured at 490 nm with a Thermo Scientific Multiskan FC. The results were expressed as a percentage of viable cells relative to the negative control (untreated cells cultured in standard medium and considered 100% viable). The half-maximum cytotoxic concentration (CC50), which was defined as the concentration which reduced the OD490 of the 1,3,4-oxadiazole-derived α-aminophosphonates/α-aminophosphonic acids-treated cells to 50% of that of untreated cells, were determined from the plotted curve of percentages of viable cells against compound concentrations.

[2] = tested on: avian CoV-IBV; assay: microbe, parasite or virus in culture; type: cell-based; settings: for Virucidal Activity Inhibition (%): 2 h incubation with virus at 37 °C, qRT-PCR
[3] = tested on: avian CoV-IBV; type: cell-based; settings: IBV titration in infected Vero cells, qRT-PCR, 3 days post-infection
[4] = tested on: IBV; set-up: method as in PMID 17479370; settings: dose-dependent, without virucidal effect; cited from earlier work
[5] = tested on: IBV Beaudette strain; set-up: method as in PMID 17479370; settings: 5 to 50 mM; cited from earlier work
[6] = Avian coronavirus, 2 h, read-out: Virucidal Activity Inhibition (%)

Row | SMILES | CC50 at 3 days [1] [µM] | inhibition at 33 µM [2, 6] [%] | Antiviral Activity ([3]; 33 µM) | inhibition at 3.66 µM [2, 6] [%] | Antiviral Activity ([3]; 3.66 µM) | other results
1 | CCOP(=O)(OCC)C(Nc1nnc(-c2ccccc2)o1)c1ccc([N+](=O)[O-])cc1 (stereo not shown) [5b, diethyl[(5-phenyl-1,3,4-oxadiazol-2-ylamino) (4-nitrophenyl)methyl]phosphonate] | 1599 ± 4.73 | 35 ± 0.53 | Not active |  |  | 
2 | CCOP(=O)(OCC)C(Nc1nnc(-c2ccccc2)o1)c1ccc(F)cc1 (stereo not shown) [5c, diethyl[(5-phenyl-1,3,4-oxadiazol-2-ylamino)(4-fluorophenyl)methyl]phosphonate] | ~550 |  |  | 46 ± 1.49 | Not active | 
3 | CCOP(=O)(OCC)C(Nc1nnc(-c2ccccc2)o1)c1ccc(OC(F)(F)F)cc1 (stereo not shown) [5f, diethyl[(5-phenyl-1,3,4-oxadiazol-2-ylamino)(4-trifluoromethoxyphenyl)methyl]phosphonate] |  | 86.1 ± 1.58 | Not active |  |  | melting point: 106.6 to 107.5 °C; Virucidal Activity Inhibition (%) ([2]; 33 µM): strongly inhibited the IBV infectivity
4 | O=P(O)(O)C(Nc1nnc(-c2ccccc2)o1)c1ccc(C(F)(F)F)cc1 (stereo not shown) [6a, [(5-phenyl-1,3,4-oxadiazol-2-ylamino)(4-trifluoromethylphenyl)methyl] phosphonic acid] | ~550 |  |  |  |  | melting point: > 260 °C; Virucidal Activity Inhibition (%) ([2]; 1.23 µM): strongly inhibited the IBV infectivity; inhibition at 1.23 µM [2, 6]: 75 ± 0.75%; Antiviral Activity ([3]; 1.23 µM): Not active
5 | O=[N+]([O-])c1ccc(C(Nc2nnc(-c3ccccc3)o2)P(=O)(O)O)cc1 (stereo not shown) [6b, [(5-Phenyl-1,3,4-oxadiazol-2-ylamino)(4-nitrophenyl)methyl]phosphonic acid] | ~550 |  |  | 31.4 ± 2.4 | Not active | 
6 | O=P(O)(O)C(Nc1nnc(-c2ccccc2)o1)c1ccc(F)cc1 (stereo not shown) [6c, [(5-Phenyl-1,3,4-oxadiazol-2-ylamino)(4-fluorophenyl)methyl]phosphonic acid] |  | 59.6 ± 1.34 | Not active |  |  | 
7 | O=P(O)(O)C(Nc1nnc(-c2ccccc2)o1)c1cc(F)c(F)c(F)c1 (stereo not shown) [6d, [(5-Phenyl-1,3,4-oxadiazol-2-ylamino)(3,4,5-trifluophenyl)methyl]phosphonic acid] | ~550 |  |  | 25 ± 1.15 | Not active | 
8 | O=P(O)(O)C(Nc1nnc(-c2ccccc2)o1)c1cc(C(F)(F)F)cc(C(F)(F)F)c1 (stereo not shown) [6e, [(5-Phenyl-1,3,4-oxadiazol-2-ylamino)(3,5-bis-trifuoromethyl-phenyl)methyl] phosphonic acid] | ~550 | 22.7 ± 3.25 | Not active |  |  | 
9 | [Cl-].[Li+] [LiCl, lithium chloride] |  |  |  |  |  | replication of IBV in Vero cells [4]: suppress the replication of IBV in Vero cells in a dose-dependent manner; virucidal activity (virus titre after incubation) [5]: did not modify the title of the virus
